According to ChEMBL document CHEMBL4373724, “An overview of recent progress in siderophore-antibiotic conjugates” (2019):
≈ marks a conversion by molar mass, not a printed value.

What was measured:
Type in all cases: functional
[1] = system: Mycobacterium tuberculosis; assay: Antitubercular activity against multi drug resistant Mycobacterium tuberculosis isolate 1
[2] = system: Mycobacterium tuberculosis; assay: Antitubercular activity against multi drug resistant Mycobacterium tuberculosis isolate 2
[3] = system: Mycobacterium tuberculosis; assay: Antitubercular activity against multi drug resistant Mycobacterium tuberculosis isolate 3
[4] = system: Mycobacterium tuberculosis; assay: Antitubercular activity against multi drug resistant Mycobacterium tuberculosis isolate 4
[5] = system: Mycobacterium tuberculosis; assay: Antitubercular activity against multi drug resistant Mycobacterium tuberculosis isolate 5
[6] = system: Mycobacterium tuberculosis; assay: Antitubercular activity against multi drug resistant Mycobacterium tuberculosis isolate 6
[7] = system: Mycobacterium tuberculosis; assay: Antitubercular activity against multi drug resistant Mycobacterium tuberculosis isolate 7
[8] = system: Mycobacterium tuberculosis; assay: Antitubercular activity against extensively drug resistant Mycobacterium tuberculosis isolate 8
[9] = system: Mycobacterium tuberculosis; assay: Antitubercular activity against extensively drug resistant Mycobacterium tuberculosis isolate 9
[10] = system: Mycobacterium tuberculosis; assay: Antitubercular activity against extensively drug resistant Mycobacterium tuberculosis isolate 10
[11] = system: Mycobacterium tuberculosis; assay: Antitubercular activity against extensively drug resistant Mycobacterium tuberculosis isolate 11

CCCCCCCCCCCCCCCCC(=O)N(O)CCCC[C@H](NC(=O)[C@@H]1COC(c2ccccc2O)=N1)C(=O)NC[C@H](NC(=O)CCCO[C@H]1O[C@@H]2O[C@@]3(C)CC[C@H]4[C@H](C)CC[C@@H]([C@H]1C)[C@@]24OO3)C(=O)N[C@H]1CCCCN(O)C1=O
MIC [1]: 1.25 µg/mL (≈ 1.07 µM) | MIC [2]: 0.625 µg/mL (≈ 0.535 µM) | MIC [3]: 0.625 µg/mL (≈ 0.535 µM) | MIC [4]: 0.625 µg/mL (≈ 0.535 µM) | MIC [5]: 0.156 to 0.312 µg/mL (≈ 0.134 to 0.267 µM) | MIC [6]: 0.625 µg/mL (≈ 0.535 µM) | MIC [7]: 0.312 µg/mL (≈ 0.267 µM) | MIC [8]: 0.31 µg/mL (≈ 0.265 µM) | MIC [9]: 0.078 µg/mL (≈ 0.0668 µM) | MIC [10]: 0.625 µg/mL (≈ 0.535 µM) | MIC [11]: 0.31 µg/mL (≈ 0.265 µM)
